The values that follow come from ChEMBL document CHEMBL1201862, “PubChem BioAssay data set” (2004).

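Test compounds were applied to cells in 96-well plates for 48 hours at 5 doses. GI50 = concentration required for 50% inhibition of growth.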 Calls of active or inactive are those of the source. Cut-off read from the data, not from the text of the source: active = GI50 up to about 1.1 µM and inactive = higher. Residues, ends and D or L forms follow the SMILES beside them. *: point of attachment. Fmoc = O=C(OCC1c2ccccc2-c2ccccc21)*; Boc = CC(C)(C)OC(=O)*

Among the test systems are ACHN; CCRF-CEM; HCT-15; Hs-578T; IGROV-1; K562; KM12; LOX IMVI; MDA-N; NCI-H460; OVCAR-4; SF-268; SF-295; SK-OV-3; SNB-19; SNB-75; T47D; U-251; UACC-257; A498.
Common to all, as to test: NCI anticancer screen, dose series, 48 h

As to `O=[N+]([O-])c1ccc2c(c1)=[N+]([O-])C1(CCCCC1)[N+]=2[O-]`, the GI50 in the assay with ACHN was 19.6 µM (inactive); in the assay on CCRF-CEM, 3.36 µM (inactive); in the assay on HCT-15, 18.2 µM; with Hs-578T, 21.5 µM (inactive); in the assay on IGROV-1, 20.4 µM (inactive); in the assay with K562, 15.8 µM (inactive). Also, the GI50 is 20.5 µM (inactive) in the assay with KM12; 19.9 µM (inactive) with LOX IMVI; 18 µM (inactive) in the assay with MDA-N; 18.8 µM (inactive) with NCI-H460; 11.6 µM (inactive) with OVCAR-4; 26.9 µM (inactive) in the assay on SF-268. For the same compound, the GI50 is 19.8 µM (inactive) with SF-295; 22.5 µM (inactive) in the assay with SK-OV-3; 36.4 µM (inactive) in the assay with SNB-19; 17.3 µM (inactive) in the assay on SNB-75; 25.5 µM (inactive) in the assay with T47D; 17.2 µM (inactive) in the assay on U-251. The GI50 in the assay on UACC-257 was 15.1 µM (inactive).

`COC(=O)/C(=C(\C)NC(C)=O)c1c(C(=O)OC)[nH]c2ccccc12`: the GI50 in the assay on A498 is > 100 µM (inactive); in the assay on ACHN, > 100 µM (inactive); with CCRF-CEM it was > 100 µM (inactive); with HCT-15, more than 100 µM; in the assay with Hs-578T, > 100 µM (inactive); with IGROV-1 it was > 100 µM (inactive). For the same compound, the GI50 in the assay with K562, with KM12, in the assay with LOX IMVI, with MDA-N, in the assay with NCI-H460 and with OVCAR-4 was > 100 µM (inactive) in each case. The GI50 in the assay with SF-268, in the assay with SF-295, in the assay on SK-OV-3, with SNB-19, in the assay with T47D and in the assay on U-251 was > 100 µM (inactive) throughout. Further, in the assay on UACC-257, the GI50 is > 100 µM (inactive).

Take `O=C(NNC(=S)Nc1ccc(Cl)cc1)c1cc(-c2ccccc2)nc2ccccc12`: the GI50 was 10 µM (inactive) with ACHN; 1.66 µM (inactive) in the assay on CCRF-CEM; 3.43 µM in the assay on HCT-15; 11.7 µM (inactive) in the assay with Hs-578T; 5.96 µM (inactive) in the assay on IGROV-1; 4.28 µM (inactive) with K562. Further, the GI50 is 4.49 µM (inactive) with KM12; 3.25 µM (inactive) with MDA-N; 6.22 µM (inactive) in the assay with NCI-H460; 10.5 µM (inactive) with OVCAR-4; 11.7 µM (inactive) in the assay on SF-268; 2.52 µM (inactive) with SF-295. Further, the GI50 with SK-OV-3 was 7.82 µM (inactive); in the assay with SNB-19, 6.89 µM (inactive); in the assay with SNB-75, 4.9 µM (inactive); in the assay with T47D, 2.33 µM (inactive); with U-251, 3.51 µM (inactive); with UACC-257, 5.55 µM (inactive).

On to `CC(=O)Oc1cc2c[n+](C)c3c4cc(OC(C)=O)c(OC(C)=O)cc4ccc3c2cc1OC(C)=O`, for which the GI50 was 7.5 µM (inactive) with A498; 4.68 µM (inactive) in the assay with ACHN; 2.69 µM with HCT-15; > 100 µM (inactive) with Hs-578T; 2.49 µM (inactive) with IGROV-1; 5.46 µM (inactive) with KM12. In addition, the GI50 in the assay on LOX IMVI was 2.82 µM (inactive); with MDA-N, 5.51 µM (inactive); in the assay on NCI-H460, 4.93 µM (inactive); with SF-268, 0.407 µM (active); in the assay with SF-295, 4.72 µM (inactive); in the assay on SK-OV-3, 4.32 µM (inactive). The GI50 in the assay with SNB-19 was 2.3 µM (inactive); with T47D, 1.87 µM (inactive); with U-251 it was 1.72 µM (inactive); in the assay with UACC-257 it was 14.5 µM (inactive).

In the case of `O=C1NC(Cc2c[nH]c3ccccc23)C(=O)N2C(c3ccccc3)c3[nH]c4ccccc4c3C[C@@H]12` (stereo partly specified), the GI50 is 29.8 µM (inactive) in the assay on A498; 29.4 µM (inactive) with ACHN; 21.7 µM in the assay with HCT-15; 16.5 µM (inactive) in the assay on Hs-578T; 22.2 µM (inactive) in the assay with IGROV-1; 21 µM (inactive) in the assay on K562. In addition, the GI50 with KM12 is 19.3 µM (inactive); in the assay on LOX IMVI it was 19.7 µM (inactive); in the assay on MDA-N it was 17.6 µM (inactive); in the assay on OVCAR-4 it was 26.9 µM (inactive); with SF-268, 26.1 µM (inactive); in the assay on SF-295 it was 15.3 µM (inactive). Further, the GI50 is 31.3 µM (inactive) in the assay on SK-OV-3; 34.1 µM (inactive) in the assay with SNB-19; 24.4 µM (inactive) with T47D; 19.5 µM (inactive) in the assay with U-251; 25.4 µM (inactive) in the assay on UACC-257.

In the case of `c1ccc2cc3c(cc2c1)nc1ccccn13`, the GI50 with ACHN was > 100 µM (inactive); in the assay on CCRF-CEM, > 100 µM (inactive); with HCT-15, more than 100 µM; with Hs-578T it was 21 µM (inactive); with IGROV-1, > 100 µM (inactive); with K562, > 100 µM (inactive). Further, the GI50 in the assay on KM12 is > 100 µM (inactive); with MDA-N, > 100 µM (inactive); with SF-268 it was > 100 µM (inactive); with SF-295 it was > 100 µM (inactive); in the assay with SK-OV-3 it was 77.3 µM (inactive); with SNB-19 it was > 100 µM (inactive). Besides, the GI50 in the assay on SNB-75, in the assay on T47D, in the assay on U-251 and in the assay with UACC-257 was > 100 µM (inactive) each time.

With `C=C1CC(C)(COc2ccc3c(C)c(Cl)c(=O)oc3c2)OC1=O` (stereo unspecified), the GI50 in the assay with ACHN was 2.82 µM (inactive); in the assay with CCRF-CEM, 0.331 µM (active); in the assay with HCT-15, 2.03 µM; in the assay with Hs-578T, 3.11 µM (inactive); with IGROV-1, 1.76 µM (inactive); in the assay with K562 it was 0.518 µM (active). For the same compound, the GI50 is 3.65 µM (inactive) in the assay on KM12; 0.964 µM (active) in the assay on LOX IMVI; 0.762 µM (active) in the assay on MDA-N; 6.97 µM (inactive) in the assay with NCI-H460; 2.31 µM (inactive) in the assay with OVCAR-4; 3.52 µM (inactive) in the assay with SF-268. For the same compound, the GI50 with SF-295 was 6.12 µM (inactive); in the assay with SK-OV-3 it was 4.88 µM (inactive); in the assay on SNB-19 it was 12.9 µM (inactive); in the assay on SNB-75, 2.02 µM (inactive); with T47D, 0.361 µM (active); in the assay with U-251 it was 7.82 µM (inactive). In addition, the GI50 in the assay with UACC-257 is 1.15 µM (inactive).

On to `Cc1cccc2nc(-c3ccccc3)cc(=O)n12`, for which the GI50 in the assay with ACHN is 43.1 µM (inactive); in the assay with CCRF-CEM it was > 100 µM (inactive); in the assay on HCT-15 it was 94 µM; in the assay on Hs-578T, 12.5 µM (inactive); with IGROV-1, 49.8 µM (inactive); with K562, > 100 µM (inactive). The GI50 in the assay on KM12, in the assay with MDA-N, in the assay with NCI-H460, in the assay with OVCAR-4, with SF-268 and in the assay with SF-295 was > 100 µM (inactive) in each case. The GI50 was 82.8 µM (inactive) in the assay on SK-OV-3; > 100 µM (inactive) in the assay with SNB-19; 14 µM (inactive) in the assay on T47D; > 100 µM (inactive) in the assay on U-251; 91.8 µM (inactive) in the assay on UACC-257.

Regarding `CN1CCN(C(=S)N(C(=O)c2ccco2)C2CCCCC2)CC1`, the GI50 in the assay on ACHN was > 100 µM (inactive); in the assay with CCRF-CEM, > 100 µM (inactive); in the assay with HCT-15, more than 100 µM; with Hs-578T, > 100 µM (inactive); with IGROV-1, > 100 µM (inactive); in the assay with K562 it was > 100 µM (inactive). In addition, the GI50 with KM12, with LOX IMVI, in the assay with MDA-N, in the assay on NCI-H460, with OVCAR-4 and in the assay with SF-268 was > 100 µM (inactive) in each case. The GI50 was > 100 µM (inactive) in the assay on SF-295; > 100 µM (inactive) in the assay on SNB-19; 50.7 µM (inactive) in the assay on SNB-75; > 100 µM (inactive) in the assay on T47D; > 100 µM (inactive) in the assay on U-251; > 100 µM (inactive) in the assay with UACC-257.

Take `CC(C)(C)OC(=O)NCCCCC(NC(=O)C(Cc1c[nH]c2ccccc12)NC(=O)OCC1c2ccccc2-c2ccccc21)C(=O)N1CCCC1C(=O)NCC(N)=O` (stereo unspecified) (Fmoc-WK(Boc)PG-NH2; configuration not given here): the GI50 is > 100 µM (inactive) in the assay with ACHN; > 100 µM (inactive) in the assay on CCRF-CEM; more than 100 µM with HCT-15; > 100 µM (inactive) in the assay on Hs-578T; > 100 µM (inactive) in the assay with IGROV-1; > 100 µM (inactive) in the assay with K562. Further, the GI50 with KM12, with LOX IMVI, in the assay on MDA-N, with NCI-H460, with OVCAR-4 and with SF-268 was > 100 µM (inactive) throughout. Moreover, the GI50 in the assay with SF-295 was 60.3 µM (inactive); in the assay on SK-OV-3 it was 1.59 µM (inactive); in the assay on SNB-19 it was > 100 µM (inactive); with SNB-75 it was > 100 µM (inactive); in the assay on T47D it was > 100 µM (inactive); with U-251 it was > 100 µM (inactive). Besides, in the assay with UACC-257, the GI50 was > 100 µM (inactive).

For `CC12CCCCC1=[N+]([O-])C(C)(C)N2O` (stereo unspecified), the GI50 in the assay with ACHN is > 100 µM (inactive); in the assay with CCRF-CEM it was > 100 µM (inactive); with HCT-15 it was more than 100 µM; in the assay on Hs-578T, > 100 µM (inactive); in the assay on IGROV-1, > 100 µM (inactive); in the assay with K562 it was > 10 µM (inactive). For the same compound, the GI50 in the assay on KM12, in the assay on LOX IMVI, in the assay on MDA-N, in the assay on NCI-H460, in the assay with OVCAR-4 and in the assay on SF-268 was > 100 µM (inactive) each time. In addition, the GI50 in the assay with SF-295, with SK-OV-3, in the assay with SNB-19, with T47D, in the assay on U-251 and in the assay with UACC-257 was > 100 µM (inactive) in each case.
